Results published in ChEMBL document CHEMBL3046266, “Synthesis of curcumin and ethylcurcumin bioconjugates as potential antitumor agents” (Med Chem Res, 2012).
Activity calls are given as the source filed them. The rule behind the calls is not given here.

Tests used:
SK-MEL [1] = assay: Cytotoxicity against Homo sapiens (human) SK-MEL cells by neutral red staining; assay type: functional, cell-based
KB [2] = assay: Cytotoxicity against Homo sapiens (human) KB cells by neutral red staining; assay type: functional, cell-based
[3] = biological target: T1, DNA topoisomerase 1 (Homo sapiens) (UniProt P11387); assay: Inhibition of Homo sapiens (human) topoisomerase 1 assessed as relaxation of supercoiled DNA up to 25 uM by agarose gel electrophoresis
T1 sequence (whole entry): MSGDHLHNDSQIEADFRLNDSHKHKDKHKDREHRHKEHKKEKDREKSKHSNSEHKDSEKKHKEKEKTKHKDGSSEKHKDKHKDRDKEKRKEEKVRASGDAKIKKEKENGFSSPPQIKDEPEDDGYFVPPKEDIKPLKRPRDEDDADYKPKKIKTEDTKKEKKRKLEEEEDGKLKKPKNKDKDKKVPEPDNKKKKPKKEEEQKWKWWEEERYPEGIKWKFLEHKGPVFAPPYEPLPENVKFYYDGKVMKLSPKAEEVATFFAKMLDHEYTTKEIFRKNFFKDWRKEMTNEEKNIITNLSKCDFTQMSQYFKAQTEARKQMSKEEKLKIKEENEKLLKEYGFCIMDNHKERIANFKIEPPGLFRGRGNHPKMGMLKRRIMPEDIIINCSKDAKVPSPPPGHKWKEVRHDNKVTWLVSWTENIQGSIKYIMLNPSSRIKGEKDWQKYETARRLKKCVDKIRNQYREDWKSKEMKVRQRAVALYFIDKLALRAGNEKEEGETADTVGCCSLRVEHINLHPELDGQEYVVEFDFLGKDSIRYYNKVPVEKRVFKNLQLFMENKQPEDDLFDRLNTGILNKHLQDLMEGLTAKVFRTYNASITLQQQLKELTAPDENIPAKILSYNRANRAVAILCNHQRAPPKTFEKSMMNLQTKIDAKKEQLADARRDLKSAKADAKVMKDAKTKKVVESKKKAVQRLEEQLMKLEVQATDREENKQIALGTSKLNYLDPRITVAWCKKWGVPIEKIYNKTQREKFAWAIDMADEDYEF

[4] = biological target: DNA topoisomerase 2-alpha (Homo sapiens, UniProt P11388); assay: Inhibition of Homo sapiens (human) topoisomerase 2 assessed as decatenation of KDNA by agarose gel electrophoresis
[5] = biological target: T1, DNA topoisomerase 1 (Homo sapiens); assay: Inhibition of Homo sapiens (human) topoisomerase 1 assessed as production of nicked DNA up to 25 uM by agarose gel electrophoresis
Vero = assay: Cytotoxicity against Chlorocebus aethiops (African green monkey) Vero cells up to 25 uM by neutral red staining; assay type: cell-based; conditions: chlorocebus sabaeus
LLC-PK1 [6] = assay: Cytotoxicity against Sus scrofa (pig) LLC-PK1 cells by neutral red staining; assay type: cell-based
SK-OV-3 = assay: Cytotoxicity against Homo sapiens (human) SKOV3 cells up to 25 uM by neutral red staining; assay type: functional, cell-based
BT-549 [7] = assay: Cytotoxicity against Homo sapiens (human) BT549 cells by neutral red staining; assay type: functional, cell-based
BT-549 [8] = assay: Cytotoxicity against Homo sapiens (human) BT549 cells up to 25 uM by neutral red staining; assay type: functional, cell-based
KB [9] = assay: Cytotoxicity against Homo sapiens (human) KB cells up to 25 uM by neutral red staining; assay type: functional, cell-based
SK-MEL [10] = assay: Cytotoxicity against Homo sapiens (human) SK-MEL cells up to 25 uM by neutral red staining; assay type: functional, cell-based
LLC-PK1 [11] = assay: Cytotoxicity against Sus scrofa (pig) LLC-PK1 cells up to 25 uM by neutral red staining; assay type: cell-based

DNA topoisomerase 2-alpha, sequence (P11388 whole entry): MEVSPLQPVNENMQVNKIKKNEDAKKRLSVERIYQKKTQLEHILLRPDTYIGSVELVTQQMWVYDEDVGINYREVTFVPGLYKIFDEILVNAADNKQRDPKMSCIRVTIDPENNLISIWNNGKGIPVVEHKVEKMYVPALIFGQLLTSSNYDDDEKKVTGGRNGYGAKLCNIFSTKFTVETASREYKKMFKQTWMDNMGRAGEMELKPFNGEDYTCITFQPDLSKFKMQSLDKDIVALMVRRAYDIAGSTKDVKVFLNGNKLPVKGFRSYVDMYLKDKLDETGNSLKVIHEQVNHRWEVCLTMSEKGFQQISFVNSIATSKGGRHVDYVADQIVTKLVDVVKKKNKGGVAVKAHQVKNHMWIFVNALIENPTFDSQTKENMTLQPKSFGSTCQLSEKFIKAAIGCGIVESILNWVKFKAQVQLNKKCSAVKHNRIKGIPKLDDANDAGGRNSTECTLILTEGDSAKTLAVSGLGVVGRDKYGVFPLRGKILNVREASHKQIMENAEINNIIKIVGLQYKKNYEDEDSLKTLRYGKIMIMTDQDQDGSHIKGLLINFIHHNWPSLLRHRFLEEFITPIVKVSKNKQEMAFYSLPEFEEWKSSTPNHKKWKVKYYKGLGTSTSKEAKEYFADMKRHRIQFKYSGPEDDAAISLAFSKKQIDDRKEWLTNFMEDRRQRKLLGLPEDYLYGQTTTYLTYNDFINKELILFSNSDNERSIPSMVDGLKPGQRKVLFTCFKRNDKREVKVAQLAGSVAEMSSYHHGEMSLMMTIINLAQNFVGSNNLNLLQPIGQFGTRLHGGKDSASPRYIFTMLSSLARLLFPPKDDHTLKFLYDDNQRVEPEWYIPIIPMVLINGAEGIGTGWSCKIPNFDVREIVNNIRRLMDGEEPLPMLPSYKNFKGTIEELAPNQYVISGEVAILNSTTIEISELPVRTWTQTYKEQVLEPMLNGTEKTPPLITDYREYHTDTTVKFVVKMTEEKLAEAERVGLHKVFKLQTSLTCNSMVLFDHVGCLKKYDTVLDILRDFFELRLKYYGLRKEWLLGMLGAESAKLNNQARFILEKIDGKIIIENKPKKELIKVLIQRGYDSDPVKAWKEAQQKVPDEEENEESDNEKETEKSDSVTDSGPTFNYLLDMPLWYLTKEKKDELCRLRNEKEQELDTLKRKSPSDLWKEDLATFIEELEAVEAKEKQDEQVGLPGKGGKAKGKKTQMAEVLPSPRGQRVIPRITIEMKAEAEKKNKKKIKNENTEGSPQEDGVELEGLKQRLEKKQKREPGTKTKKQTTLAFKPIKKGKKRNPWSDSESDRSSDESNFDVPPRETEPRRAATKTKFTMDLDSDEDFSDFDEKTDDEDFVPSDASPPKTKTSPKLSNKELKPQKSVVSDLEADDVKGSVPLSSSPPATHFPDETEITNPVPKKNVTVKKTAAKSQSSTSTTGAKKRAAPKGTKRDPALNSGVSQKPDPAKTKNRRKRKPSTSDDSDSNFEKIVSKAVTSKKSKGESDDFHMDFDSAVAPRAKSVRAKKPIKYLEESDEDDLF

| Compound | IC50 (SK-MEL [1]) [µM] | IC50 (KB [2]) [µM] | inhibition [3] | IC50 [4] [µM] | inhibition [5] | Activity (Vero) | IC50 (LLC-PK1 [6]) [µM] | Activity (SK-OV-3) | IC50 (BT-549 [7]) [µM] | Activity (BT-549 [8]) | Activity (KB [9]) | Activity (SK-MEL [10]) | Activity (LLC-PK1 [11]) |
| --- | --- | --- | --- | --- | --- | --- | --- | --- | --- | --- | --- | --- | --- |
| COc1ccc2nc(NCC(=O)Oc3ccc(/C=C/C(=O)CC(=O)/C=C/c4ccc(OC(=O)CNc5nc6ccc(OC)cc6s5)c(OC)c4)cc3OC)sc2c1 | 15 | 23 | inactive | 15 | inactive | Non-toxic | 22.5 | inactive | 18.1 |  |  |  |  |
| CCOc1cc(/C=C/C(=O)CC(=O)/C=C/c2ccc(OC(=O)CCl)c(OCC)c2)ccc1OC(=O)CCl [DI-O-CHLOROACETYLETHYL CURCUMIN] |  |  | inactive | 12 | inactive | Non-toxic |  | inactive |  | inactive | inactive | inactive | Non-toxic |
| COc1cc(/C=C/C(=O)CC(=O)/C=C/c2ccc(OC(=O)CCl)c(OC)c2)ccc1OC(=O)CCl [DI-O-CHLOROACETYLCURCUMIN] | 12.5 | > 25 | inactive | 20 | inactive | Non-toxic |  | inactive | 10 |  |  |  | Non-toxic |
| CCCCCCC(=O)Oc1ccc(/C=C/C(=O)CC(=O)/C=C/c2ccc(OC(=O)CCCCCC)c(OCC)c2)cc1OCC [DI-O-HEPTANOYLETHYLCURCUMIN] |  |  | inactive | 3 | inactive | Non-toxic |  | inactive |  | inactive | inactive | inactive | Non-toxic |
| CCOc1cc(/C=C/C(=O)CC(=O)/C=C/c2ccc(OC(=O)CCCl)c(OCC)c2)ccc1OC(=O)CCCl [DI-O-CHLOROPROPIONYLETHYL CURCUMIN] |  |  | inactive | 20 | inactive | Non-toxic |  | inactive |  | inactive | inactive | inactive | Non-toxic |
| COc1cc(/C=C/C(=O)CC(=O)/C=C/c2ccc(OC(=O)CCNC34CC5CC(CC(C5)C3)C4)c(OC)c2)ccc1OC(=O)CCNC12CC3CC(CC(C3)C1)C2 | 18.5 | > 25 | inactive | 18 | inactive | Non-toxic |  | inactive | 20.5 |  |  |  | Non-toxic |
| CCOc1cc(/C=C/C(=O)CC(=O)/C=C/c2ccc(O)c(OCC)c2)ccc1O [ETHYL CURCUMIN] | 16 | > 25 | inactive | 7.5 | inactive | Non-toxic |  | inactive | 18 |  |  |  | Non-toxic |
| COc1cc(/C=C/C(=O)CC(=O)/C=C/c2ccc(OC(=O)C34CC5CC(CC(C5)C3)C4)c(OC)c2)ccc1OC(=O)C12CC3CC(CC(C3)C1)C2 [DI-O-ADAMANTOYLCURCUMIN] |  |  | inactive | 4.5 | inactive | Non-toxic |  | inactive |  | inactive | inactive | inactive | Non-toxic |
| CCOc1cc(/C=C/C(=O)CC(=O)/C=C/c2ccc(OC(=O)c3cccs3)c(OCC)c2)ccc1OC(=O)c1cccs1 [DI-O-(2-THIENOYL)ETHYLCURCUMIN] |  |  | inactive | 23 | inactive | Non-toxic |  | inactive |  | inactive | inactive | inactive | Non-toxic |
| COc1cc(/C=C/C(=O)CC(=O)/C=C/c2ccc(O)c(OC)c2)ccc1O [CURCUMIN] | 13.8 | > 25 | inactive | 15 | inactive | Non-toxic |  | inactive | 10.5 |  |  |  | Non-toxic |
| COc1cc(/C=C/C(=O)CC(=O)/C=C/c2ccc(OC(=O)CNC34CC5CC(CC(C5)C3)C4)c(OC)c2)ccc1OC(=O)CNC12CC3CC(CC(C3)C1)C2 | 15 | > 25 | inactive | 4 | inactive | Non-toxic |  | inactive | 19.4 |  |  |  | Non-toxic |
| CCCCCCC(=O)Oc1ccc(/C=C/C(=O)CC(=O)/C=C/c2ccc(OC(=O)CCCCCC)c(OC)c2)cc1OC [DI-O-HEPTANOYLCURCUMIN] |  |  | inactive | 2.9 | inactive | Non-toxic |  | inactive |  | inactive | inactive | inactive | Non-toxic |
| CCOc1cc(/C=C/C(=O)CC(=O)/C=C/c2ccc(OC(=O)CCNCCN(CC)CC)c(OCC)c2)ccc1OC(=O)CCNCCN(CC)CC |  |  | inactive | 7.1 | inactive | Non-toxic |  | inactive |  | inactive | inactive | inactive | Non-toxic |
| COc1ccc2nc(NCCC(=O)Oc3ccc(/C=C/C(=O)CC(=O)/C=C/c4ccc(OC(=O)CCNc5nc6ccc(OC)cc6s5)c(OC)c4)cc3OC)sc2c1 | 23.8 | > 25 | inactive | 19 | inactive | Non-toxic |  | inactive | 23.8 |  |  |  | Non-toxic |
| COc1cc(/C=C/C(=O)CC(=O)/C=C/c2ccc(OC(=O)c3cccs3)c(OC)c2)ccc1OC(=O)c1cccs1 [DI-O-(2-THIENOYL)CURCUMIN] |  |  | inactive | 8 | inactive | Non-toxic |  | inactive |  | inactive | inactive | inactive | Non-toxic |
| CCOc1cc(/C=C/C(=O)CC(=O)/C=C/c2ccc(OC(=O)CNC34CC5CC(CC(C5)C3)C4)c(OCC)c2)ccc1OC(=O)CNC12CC3CC(CC(C3)C1)C2 |  |  | inactive | 3.4 | inactive | Non-toxic |  | inactive |  | inactive | inactive | inactive | Non-toxic |
| CCOc1cc(/C=C/C(=O)CC(=O)/C=C/c2ccc(OC(=O)CCNC34CC5CC(CC(C5)C3)C4)c(OCC)c2)ccc1OC(=O)CCNC12CC3CC(CC(C3)C1)C2 |  | 15 | inactive | 2.1 | inactive | Non-toxic |  | inactive |  | inactive |  | inactive | Non-toxic |
| COc1cc(/C=C/C(=O)CC(=O)/C=C/c2ccc(OC(=O)CNCCCl)c(OC)c2)ccc1OC(=O)CNCCCl |  |  | inactive | 0.35 | inactive | Non-toxic |  | inactive |  | inactive | inactive | inactive | Non-toxic |
| CCOc1cc(/C=C/C(=O)CC(=O)/C=C/c2ccc(OC(=O)CNCCN(C)C)c(OCC)c2)ccc1OC(=O)CNCCN(C)C |  |  | inactive | 4 | inactive | Non-toxic | 22 | inactive | 11.5 |  | inactive | inactive |  |
